Laboratory results as given in patent publication US20230270804A1, “ANTI-HYPERCHOLESTEROLEMIA COMPOSITION AND A METHOD OF MANUFACTURING THE SAME” (NBI BIOSCIENCES PRIVATE LIMITED, priority 2020, published 2023).

Tests used:
Assay type in all cases: in vivo, Wistar strain albino rats
[1] = Prophylactic study: organ weights after sacrifice; settings: HFD+normal diet
Procedure: The prophylactic study which lasted 90 days used 6 rats per group. […] The 6 groups were as follows: • 1. Normal Control • 2. High Fat Diet (HFD) 1 ml 1/d+Normal Diet • 3. High Fat Diet (HFD)+Normal Diet+the composition of the present invention (OD) • 4, High Fat Diet (HFD)+Normal Diet+the composition of the present invention (BD) • 5. […] The body weights were recorded to the nearest gram (g) with proper tare to 0.0000 with the subject at steady state on the weighing machine. The same weighing machine was used for all the subjects. The machine was tested with a known set of weights for any error.

[2] = Prophylactic study: hematological parameters; settings: HFD+normal diet; for Lymphocyte / Neutrophils: in % (unit assumed)
Procedure: Wistar strain albino rats of body weight ranging from 190-225 g were selected for the present study. The temperature and humidity were kept at optimum (22+2° C.; 40-70% and animals were exposed to natural chronological day night cycles. The experiments were carried out in conformity with the Institutional Animal Ethics Committee.
The 6 groups were as follows: • 1. Normal Control • 2.
(§1) 1.5-2 ml blood sample was taken from retino-orbital chamber in vials for biochemical estimations at every 15 days. Investigations performed included detailed Total Cholesterol—TC (mg/dl), Triglyceride—TG (mg/dl), High Density Lipoprotein—HDL-C (mg/dl), Low Density Lipoprotein—LDL-C (mg/dl), Very Low-Density Lipoprotein—VLDL (mg/dl), WBC (10^3/u1), RBC (10^6/u1), Hb (g/dl), PCV (%), Reticulocyte (%), Platelet count 10^5/mm^3, Clotting time (Sec), Neutrophils, Lymphocyte, Monocyte and Eosinophil. The estimations were done with Ecoline kits from Erba Mannheim, ERBA diagnostics Mannheml, Germany using Semi Autoanalyzer RX50 of MicroLabs Instruments and COUNCELL21 of Tulip Diagnostics Pvt. Ltd. Lipid peroxidation (Plasma & Liver), HMG Co-Reductase, Creatine phosphokinase (CPK), Lactate dehydrogenase (LDH), SGOT and SGPT were estimated at the end of both the studies using the kits.

[3] = target: T1, HMG CoA Reductase (Rattus norvegicus, UniProt P51639); assay: Prophylactic study: HMG CoA reductase activity in liver homogenate; settings: HFD+normal diet, after sacrifice
T1 construct: The tissue homogenate was prepared by homogenizing 1 gm of tissue (liver) with 10 ml of saline arsenate solution; from tissue; host or cells: rat liver homogenate
T1 sequence (P51639 1-887): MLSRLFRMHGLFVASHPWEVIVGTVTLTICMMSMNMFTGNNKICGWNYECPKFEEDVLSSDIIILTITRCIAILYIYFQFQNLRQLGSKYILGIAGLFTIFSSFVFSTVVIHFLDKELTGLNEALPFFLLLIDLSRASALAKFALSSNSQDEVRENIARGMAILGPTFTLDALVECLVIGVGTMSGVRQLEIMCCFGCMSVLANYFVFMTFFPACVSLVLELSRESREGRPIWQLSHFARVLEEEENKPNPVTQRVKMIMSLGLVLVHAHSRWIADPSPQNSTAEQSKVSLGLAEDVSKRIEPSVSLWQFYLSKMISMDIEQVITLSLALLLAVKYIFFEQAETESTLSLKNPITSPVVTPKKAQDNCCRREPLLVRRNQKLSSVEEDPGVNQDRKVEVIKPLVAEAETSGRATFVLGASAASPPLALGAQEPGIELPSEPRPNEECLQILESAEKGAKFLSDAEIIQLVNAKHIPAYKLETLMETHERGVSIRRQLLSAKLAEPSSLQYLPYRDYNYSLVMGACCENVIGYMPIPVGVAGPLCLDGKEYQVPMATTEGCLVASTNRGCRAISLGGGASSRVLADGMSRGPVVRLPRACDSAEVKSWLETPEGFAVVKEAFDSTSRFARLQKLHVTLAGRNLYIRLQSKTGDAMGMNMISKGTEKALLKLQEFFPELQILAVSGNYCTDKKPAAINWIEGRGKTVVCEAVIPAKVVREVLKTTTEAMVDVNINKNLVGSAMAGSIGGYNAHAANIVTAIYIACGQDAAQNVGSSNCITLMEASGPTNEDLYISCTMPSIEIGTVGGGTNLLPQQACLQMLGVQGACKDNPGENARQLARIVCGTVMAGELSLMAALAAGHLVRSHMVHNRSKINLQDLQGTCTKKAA
Procedure: as §1
The tissue homogenate was prepared by homogenizing 1 gm of tissue (liver) with 10 ml of saline arsenate solution. Further equal volumes of the fresh 10% tissue homogenate and diluted perchloric acid were mixed and allowed to stand for 5 minute and centrifuge (2000 rpm, 10 minutes). […] The readings were taken after 10 minutes at 540 nm vs. a similarly treated saline/arsenate blank.

CC(C)c1c(C(=O)Nc2ccccc2)c(-c2ccccc2)c(-c2ccc(F)cc2)n1CC[C@@H](O)C[C@@H](O)CC(=O)O [Statin, Atorvastatin]
Heart weight [1]: 2.79 ± 0.03 g/100 g bd · wt
Intestine weight [1]: 3.54 ± 0.03
Kidney weight [1]: 1.15 ± 0.03 g/100 g bd · wt
Liver weight [1]: 3.90 ± 0.05 g/100 g bd · wt
Lungs weight [1]: 1.96 ± 0.02 g/100 g bd · wt
Spleen weight [1]: 0.65 ± 0.03
pancreas weight [1]: 0.90 ± 0.05 g/100 g bd · wt
Clotting time ([2]; day 0): 109.0 ± 1.10 s
Eosinophil ([2]; day 0): 1.1%
Hb ([2]; day 0): 11.95 ± 1.10 g/dL
Monocyte ([2]; day 0): 1.4%
PCV ([2]; day 0): 42.50 ± 1.80%
RBC ([2]; day 0): 7.20 ± 0.20 10^6/μl
Reticulocyte ([2]; day 0): 1.15 ± 0.05%
WBC ([2]; day 0): 8.90 ± 0.55 10^3/μl
Lymphocyte ([2]; day 0): 71.5
Neutrophils ([2]; day 0): 26
Clotting time ([2]; day 15): 107.45 ± 0.77 s
Eosinophil ([2]; day 15): 1.3%
Monocyte ([2]; day 15): 1.4%
PCV ([2]; day 15): 35.85 ± 1.11%
Platelet count ([2]; day 15): 905 ± 21.2 10³/µL
RBC ([2]; day 15): 7.20 ± 0.81 10^6/μl
Reticulocyte ([2]; day 15): 1.10 ± 0.11%
WBC ([2]; day 15): 9.79 ± 0.57 10^3/μl
Lymphocyte ([2]; day 15): 72.7
Neutrophils ([2]; day 15): 24.6
Clotting time ([2]; day 30): 110.0 ± 1.0 s
Eosinophil ([2]; day 30): 1.15%
Monocyte ([2]; day 30): 1.6%
Platelet count ([2]; day 30): 1060 ± 23.3 10³/µL
RBC ([2]; day 30): 7.20 ± 0.20 10^6/μl
Reticulocyte ([2]; day 30): 1.08 ± 0.10%
WBC ([2]; day 30): 9.03 ± 0.3 10^3/μl
Lymphocyte ([2]; day 30): 71.25
Neutrophils ([2]; day 30): 26
Clotting time ([2]; day 45): 114.0 ± 1.00 s
Eosinophil ([2]; day 45): 1.15%
Hb ([2]; day 45): 12.00 ± 1.20 g/dL
Monocyte ([2]; day 45): 1.4%
PCV ([2]; day 45): 42.10 ± 1.30%
RBC ([2]; day 45): 7.05 ± 0.21 10^6/μl
Reticulocyte ([2]; day 45): 1.25 ± 0.06%
WBC ([2]; day 45): 9.00 ± 0.50 10^3/μl
Lymphocyte ([2]; day 45): 71.45
Neutrophils ([2]; day 45): 26
Clotting time ([2]; day 60): 112.0 ± 1.05 s
Hb ([2]; day 60): 12.20 ± 1.12 g/dL
PCV ([2]; day 60): 43.10 ± 1.30%
RBC ([2]; day 60): 7.06 ± 0.31 10^6/μl
Reticulocyte ([2]; day 60): 1.35 ± 0.06%
WBC ([2]; day 60): 8.00 ± 0.60 10^3/μl
Lymphocyte ([2]; day 60): 71.45
Neutrophils ([2]; day 60): 26
Clotting time ([2]; day 75): 110.81 ± 5.86 s
Eosinophil ([2]; day 75): 1.22%
Hb ([2]; day 75): 12.82 ± 0.25 g/dL
Platelet count ([2]; day 75): 1070 ± 22.9 10³/µL
RBC ([2]; day 75): 7.36 ± 0.21 10^6/μl
Reticulocyte ([2]; day 75): 1.70 ± 0.05%
WBC ([2]; day 75): 8.71 ± 0.23 10^3/μl
Lymphocyte ([2]; day 75): 71.12
Neutrophils ([2]; day 75): 26.28
Clotting time ([2]; day 90): 111.00 ± 5.57 s
Eosinophil ([2]; day 90): 1.35%
Hb ([2]; day 90): 12.78 ± 0.28 g/dL
Platelet count ([2]; day 90): 1070 ± 22.9 10³/µL
RBC ([2]; day 90): 7.37 ± 0.20 10^6/μl
Reticulocyte ([2]; day 90): 1.73 ± 0.02%
WBC ([2]; day 90): 8.76 ± 0.19 10^3/μl
Lymphocyte ([2]; day 90): 70.82
Neutrophils ([2]; day 90): 26.37
HMG Co Reductase [3]: 163.92 ± 4.02 U/mg
